Laboratory results taken from patent publication US12569170B2, “Paramagnetic sodium NMR macrocyclic-based biosensors, and associated methods” (Yale University, priority 2021, dated 2026).
Entries after “also recorded” stand apart in the source; their conditions may differ.

Tests used:
U87 tumors = test: Sorafenib treatment of U87 GBM models monitored by ^1H-MRI and ^23Na-MRSI; format: in vivo, rat; details: for tumor growth: U87, 0.1 g/kg body weight daily oral gavage from day 9, imaged 6 days after, vs DMSO control
Protocol: FIG. 9 depicts spatial distributions of compartmentalized ^23Na signals (Na^+b, Na^+e, Na^+i) as well as transendothelial (ΔNa^+end) and transmembrane (ΔNa^+mem) gradients in a pair of U87 tumors, one of which was treated with sorafenib, an anti-angiogenic tyrosine kinase inhibitor that targets vascular endothelial growth factor receptor (VEGFR) and platelet-derived growth factor receptor (PDGFR). Sorafenib dosage was 0.1 g/kg body weight, dissolved in dimethylsulfoxide (DMSO) for the treated animal, whereas the untreated control received an equivalent dose of pure DMSO. Daily treatment began on day 9 post-tumor-inoculation, and imaging was performed an additional 6 days after.
Having established the utility of ^23Na-MRSI in vivo with TmDOTP^5−, additional applications of Na^+ imaging were explored, such as monitoring therapeutic efficacy or using other agents to probe different spectroscopic characteristics. A separate cohort of U87 GBM models were treated with sorafenib, an anti-angiogenic tyrosine kinase inhibitor, with some animals kept as controls. Sorafenib treatment (0.1 g/kg body weight) began on day 9 following tumor inoculation and was dissolved in dimethylsulfoxide (DMSO) to be delivered via oral gavage. […] Therefore, ^23Na-MRSI with TmDOTP^5− has potential to effectively image the efficacy of cancer drugs.

[1] = Concentration effects of Dotarem and Gadavist on ^23Na spectra, concentric tubes phantom; format: physicochemical; details: 20 mM, 10 mM, 5 mM in outer compartment, tubes parallel to the magnetic field
Protocol: Spectra are shown for 20 mM, 10 mM, and 5 mM, where 0 ppm corresponds to the natural, unshifted ^23Na resonance of the inner compartment to which no agent was added.

[2] = Bulk magnetic susceptibility (BMS) contribution to chemical shift in phantoms; format: physicochemical; details: phantoms
Source text: Upon translation of the present in vitro results to in vivo situations, certain confounding factors must be addressed. In the interstitial space, there are additional cations such as calcium (Ca^2+), magnesium (Mg^2+) and K^+ which will also bind to anionic contrast agents like TmDOTP^5−. However, physiologically their concentrations are low compared to Na^+. […] Additionally, there is a contribution to the chemical shift from bulk magnetic susceptibility (BMS) changes brought about by TmDOTP^5− in addition to the hyperfine shifts induced by interactions with Na^+. Experiments were performed on different DOTP^8− salts in phantoms parallel and perpendicular to the main magnetic field B0, and also spherical phantoms in which there was no BMS contribution. Only a small portion (˜2%) of the total chemical shift for TmDOTP^5− was due to BMS arising due to anisotropy of the paramagnetic susceptibility, and the remainder was the hyperfine shift.

U87-bearing rat brain = test: In vivo ^23Na-MRSI line broadening in glioma models
Source text: FIGS. 10C-10F illustrates images according to certain embodiments of the disclosure. […] However, the ^23Na linewidth analysis by TmDOTP^5− is confounded by its high ^23Na shiftability. This peak separation in vivo overestimates the full-width at half-maximum (FWHM) calculations and exaggerates the measured ^23Na linewidths.
Slice 1 is most superficial, and slice 3 is the deepest. The tumor outline is depicted in white in all columns.
This establishes GdDOTP^5−-induced ^23Na linewidth broadening as a potential surrogate marker for the altered Na^+ biodistribution within tumors. Thus, in brain tumor models, TmDOTP^5− with ^23Na-NMR can separate Na^+ in intracellular, blood, and interstitial pools, while GdDOTP^5− can distinguish Na^+ within intracellular and extracellular (i.e., blood and interstitial) pools.
Because the majority of the present studies looked at ^23Na chemical shift, the line broadening capabilities of these paramagnetic agents were also interrogated. […] This is due to the high magnetic moment of Gd^3+ which contributes to some degree of anisotropy to the paramagnetic susceptibility. […] Crucially, this family of paramagnetic agents has allowed to insightful probing of the tumor microenvironment and drawing of significant conclusions about tumor aggressiveness based on spectroscopic analysis.

[3] = Comparison of ^23Na shiftability and broadening potential of DOTP agents; format: physicochemical

CNC(=O)c1cc(Oc2ccc(NC(=O)Nc3ccc(Cl)c(C(F)(F)F)c3)cc2)ccn1 [sorafenib]
tumor growth (U87 tumors): slow tumor growth compared to untreated animals
tumor growth (U87 tumors; listed as Sorafenib): retarded the growth rate of the tumor
region of alterations in Na^+ distribution (elevated Na b and ΔNa^+end, decreased Na^+e and ΔNa^+mem) (U87 tumors; U87, treated vs untreated tumor, ^23Na-MRSI with TmDOTP^5−): confined to a smaller region for the treated tumor

Gd^3+2-[4,7,10-tris(carboxymethyl)-1,4,7,10-tetrazacyclododec-1-yl]acetate [Dotarem]
^23Na shiftability [1]: shiftability stronger than the other Gd^3+-based agents with macrocyclic chelates

O=C([O-])CN1CCN(CC(=O)[O-])CCN([C@H](CO)[C@H](O)CO)CCN(CC(=O)[O-])CC1.[Gd+3] [Gadavist, Gd^3+2,2′,2″-(10-((2R,3S)-1,3,4-trihydroxybutan-2-yl)-1,4,7,10-tetraazacyclododecane-1,4,7-triyl)triacetate]
^23Na shiftability [1]: shiftability stronger than the other Gd^3+-based agents with macrocyclic chelates

O=P([O-])([O-])CN1CCN(CP(=O)([O-])[O-])CCN(CP(=O)([O-])[O-])CCN(CP(=O)([O-])[O-])CC1.[Gd+3] [GdDOTP^5−]
BMS contribution to chemical shift [2]: dominated by BMS effect
^23Na line broadening in tumor versus normal tissue (U87-bearing rat brain; glioma models, after agent infusion): most prominent within in the tumor; also recorded: considerable linewidth broadening within gliomas; also recorded: larger within the tumor as well compared to healthy tissue
correlation of tumoral line broadening with increases in ΔNa^+end and decreases in ΔNa^+mem (U87-bearing rat brain; same rat, gradients from TmDOTP^5− shifts): correlated well
broadening potential (sensitivity of linewidth to agent concentration), words [3]: high broadening potentials; also recorded: comparable broadening potential as TmDOTP^5−
shiftability (sensitivity of ^23Na chemical shift to agent concentration), words [3]: without inducing ^23Na shift differences between compartments; also recorded: smaller shiftability
